According to patent publication US5298523A, “Method for treating transplant patients using mycalamide compounds” (priority 1992, dated 1994):

Experiments:
[1] = test system: allogeneic skin graft rejection, CBA mice; test: Allogeneic skin graft rejection (BALB/c to CBA); format: in vivo, mouse; set-up: key to Graft Scores: 0: rejection; +: no rejection; conditions: 0.01 mg/kg
Description: Allogeneic skin grafting. The effects of mycalamide A on the rejection of allogeneic skin grafts were determined using the BALB/c→CBA skin graft model. Skin grafts were prepared from BALB/c donors as follows: donors were sacrificed by cervical dislocation and hair shaved from back, sides, and torso. A depilatory agent was used to remove any remaining hair. The prepared skin area was then swabbed with a Betadine and alcohol solution. The skin was removed by making an incision at the base of the tail, and the skin was lifted and separated from the underlying muscle in two sections. The skin was then placed in a sterile petri dish containing sterile, ice cold normal saline. A sterile, #7 cord borer was used to punch out approximately 16 graft discs from each animal skin preparation. Recipient CBA mice were anesthetized with 1.5 cc ketamine:xylamine. The back of each recipient animal was shaved and a depilatory agent used to remove excess hair. The prepared area was swabbed with Betadine:alcohol, and a small plug of skin, approximately the size of the prepared grafts, was removed by excision. The skin graft plug was then placed in the center of the excised region and the resulting transplanted area sprayed with a barrier film (liquid skin). Animals were placed one to a cage and supplied with sterile food and water, ad libitum. Mice were observed each day for signs of rejection of the graft (a shrinking and thickening of the graft with eventual sloughing).

murine CD4^+ T cells = test: Activation of CD4+ T cells by PMA/mB7; format: cell-based, murine (BALB/c); conditions: in words
Description: (A) Costimulation of T cells with anti-CD3 mAb and mB7. […] (B) Costimulation of T cells with mB7 and PMA. […] All cultures were incubated for 48 hours and pulsed with 1 μCi [ ^3 H] thymidine/well for the last 6 hours of the incubation period to assay for T cell proliferation.
(A) Costimulation of T cells with anti-CD3 mAb and mB7. 2×10^5 purified BALB/c CD4^+ T lymphocytes were stimulated with the indicated concentrations of anti-CD3 mAb in the presence of medium (.largecircle.), 2×10^4 paraformaldehyde-fixed CHO-mB7 cells (.quadrature.), or 2×10^4 paraformaldehyde-fixed CHO-mB7 cells in the presence of 0.1 nM FK506 (.gradient.), 1 nM FK506 (Δ), or 10 nM FK506 ( ). (B) Costimulation of T cells with mB7 and PMA. 2×10^5 purified BALB/c CD4^+ T lymphocytes were stimulated with the indicated concentrations of PMA and either medium (.largecircle.), 2×10^4 paraformaldehyde-fixed CHO-mB7 cells (.quadrature.), or paraformaldehyde-fixed CHO-mB7 cells in the presence of 0.1 nM FK506 (.gradient.), 1 nM FK506 (Δ), or 10 nM FK506 ( ). All cultures were incubated for 48 hours and pulsed with 1 μCi [^3 H] thymidine/well for the last 6 hours of the incubation period to assay for T cell proliferation.
(A) Costimulation of T cells with anti-CD3 mAb and mB7. […]

SMILES: C=C1CC(OC)(C(O)C(=O)NC2OCOC3C2OC(CC(O)CO)C(C)(C)C3OC)OC(C)C1C (centres unmarked) [Mycalamide A, mycalamide A]
- % Alive ([1]; Q2D × 7, 1-14 IP, D35): 0%
- Graft Scores ([1]; Q2D × 7, 1-14 IP, D35): +
- mean rejection time ([1]; twice daily, intraperitoneally for 14 days): 17.8 days
- effect on rejection of allogeneic skin grafts ([1]; twice daily, intraperitoneally for 14 days, in words): suppressed the normal rejection of allogeneic skin grafts
- effect on PMA/CHO-mB7 stimulation of CD4+ cells (murine CD4^+ T cells): blocks activation
